The values below come from patent publication EP4663632A1, “COMPOUNDS USEFUL FOR THE MODULATION OF THE ACTIVITY OF STING” (Sulis Therapeutics ApS, priority 2024, dated 2025).

Molecules are shown by their SMILES.

For test [1], the target named is C-terminal domain (CTD) of human STING (Homo sapiens, UniProt Q86WV6). The experiment in a line: STING binding FP assay II. Further details: recombinant human STING protein (155-379). As to conditions: 7 nM STING. The method, then:
The interaction between molecules and the C-terminal domain (CTD) of human STING was evaluated using a competition binding assay. In this assay, recombinant human STING protein (155-379) and a STING binding fluorescent probe were employed. Upon binding of the probe to STING, the rotation of the fluorescent probe is slowed due to the larger molecular size of the protein-bound complex. As a result, emitted light retains its plane of polarization, leading to an increase in fluorescence polarization. Molecules competing for the probe binding site displace the probe, which leads to rapid randomization of the polarization plane of the emitted light and a subsequent decrease in measured fluorescence polarization signal. Change in polarization was measured, allowing a comparative evaluation of the binding affinities of different compounds to the target protein.
The assay was performed in 96-well plates (ThermoFisher, cat.# 237108) containing 100µl : 10 µL test compound in 10% DMSO and buffer A (150 mM NaCl, 50 mM HEPES pH 7.5, 1 mM DTT) + 90 µL prepared master mix solution of: 4 nM fluorescein-labelled STING ligand (Probe 1; synthesis described above) in buffer A + 0.055% Tween-20 (v/v) and 35 nM STING in buffer A. Post mixing, plates were agitated at 600rpm and incubated for 20 min at room temperature. Subsequent measurements of the fluorescence polarization signal were made on a BioTek Synergy-H1 plate reader, using a polarization filter; Exc: 485/20 nm, Em: […]) with a gain-setting of 75. IC50 values were determined using a standard non-linear regression four-parameter curve fit in Graphpad Prism.
The procedure for STING binding FP assay II is the same as described for STING binding FP assay I, except for a lower STING concentration. In STING binding FP assay II, a concentration of 7 nM STING in buffer A was used.

In the next test the target is STING (Homo sapiens, UniProt Q86WV6). The experiment in a line: Western Blot analysis of inhibition of STING activation in HFF-1 cells. Format: cell-based. On the set-up: host or cells: HFF-1 human foreskin fibroblasts. The conditions noted are these: for STING, TBK1 and IRF1 phosphorylation: 2 h or 5 h. As to the method:
To assess whether S1 STING ligands inhibit STING activation, primary human skin fibroblasts (Figure 5) or HFF-1 cells (Figure 6) were treated with various compounds which comprise only an S1 ligand domain and a Linker domain before undergoing Western Blot analysis as described below.
The cells were lysed and analysed on WB. […] The WB membrane was probed for p-STING, STING, p-IRF3, p-TBK1, and Vinculin.
Background: In western blotting, separated proteins are transferred to a membrane and probed.

C-terminal domain (CTD) of human STING, sequence (Q86WV6 155-379): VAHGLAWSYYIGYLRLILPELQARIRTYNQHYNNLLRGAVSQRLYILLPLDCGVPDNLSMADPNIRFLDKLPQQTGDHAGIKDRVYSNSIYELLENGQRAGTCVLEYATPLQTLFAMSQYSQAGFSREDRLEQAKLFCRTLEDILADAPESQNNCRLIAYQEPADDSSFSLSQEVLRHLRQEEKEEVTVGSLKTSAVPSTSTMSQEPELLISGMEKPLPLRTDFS
STING, sequence (Q86WV6 whole entry, the tested form may be a part): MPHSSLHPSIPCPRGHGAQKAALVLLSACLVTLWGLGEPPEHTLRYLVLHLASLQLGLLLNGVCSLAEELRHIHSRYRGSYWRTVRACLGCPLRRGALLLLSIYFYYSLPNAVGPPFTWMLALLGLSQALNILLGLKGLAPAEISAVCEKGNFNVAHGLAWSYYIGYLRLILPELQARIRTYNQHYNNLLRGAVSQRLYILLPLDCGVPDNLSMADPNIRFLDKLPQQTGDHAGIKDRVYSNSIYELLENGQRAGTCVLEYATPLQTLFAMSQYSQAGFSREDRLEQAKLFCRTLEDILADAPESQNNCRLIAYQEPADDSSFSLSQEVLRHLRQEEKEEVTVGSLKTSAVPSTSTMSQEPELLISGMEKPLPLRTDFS

For the compound `CCn1nc(C)cc1C(=O)N=c1n(C)c2cc(C(N)=O)ccc2n1CCC(CCn1c(=NC(=O)c2cc(C)nn2CC)n(C)c2cc(C(N)=O)ccc21)OCC(=O)NCCOCCOCCOCCOCCC(=O)NCCOCCOCCOCCOCCOc1cccc(C(=O)c2csc([C@@H]3CCCN3C(=O)[C@@H](NC(=O)[C@H](C)NC)C3CCCCC3)n2)c1` (stereo partly drawn) [Example 17], the IC50 in test [1] was 7.9 nM.

With `CCn1nc(C)cc1C(=O)N=c1n(C)c2cc(C(N)=O)ccc2n1CCC(CCn1c(=NC(=O)c2cc(C)nn2CC)n(C)c2cc(C(N)=O)ccc21)OCC(=O)NCCOCCOCCNc1cccc2c1C(=O)N(C1CCC(=O)NC1=O)C2=O` (stereo not drawn) [Example 12, 1-(3-{[N-2-(2-{2-[2-(2,6-Dioxo-3-piperidyl)-1,3-dioxo-4-isoindolinylamino]ethoxy}ethoxy)ethylcarbamoyl]methoxy}-5-{5-carbamoyl-2-[(1-ethyl-3-methyl-5-pyrazolyl)carbonylimino]-3-methyl-2,3-dihydro-1H-1,3-benzimidazol-1-yl}pentyl)-2-[(1-ethyl-3-methyl-5-pyrazolyl)carbonylimino]-3-methyl-2,3-dihydro-1H-1 ,3-benzimidazole-5-carboxamide], the IC50 in test [1] came to 2.1 nM. Regarding `CCn1nc(C)cc1C(=O)N=c1n(C)c2cc(C(N)=O)ccc2n1CCC(CCn1c(=NC(=O)c2cc(C)nn2CC)n(C)c2cc(C(N)=O)ccc21)OCC(=O)N1CCOC[C@@H]1c1ccccc1` (stereo partly drawn) [Example A30, 1-(3-{2-[(S)-3-Phenyl-4-morpholinyl]-2-oxoethoxy}-5-{5-carbamoyl-2-[(1-ethyl-3-methyl-5-pyrazolyl)carbonylimino]-3-methyl-2,3-dihydro-1H-1,3-benzimidazol-1-yl}pentyl)-2-[(1-ethyl-3-methyl-5-pyrazolyl)carbonylimino]-3-methyl-2,3-dihydro-1H-1,3-benzimidazole-5-carboxamide], the “STING, TBK1 and IRF1 phosphorylation” value at STING (5 µM for 15 min prior to 300 nM diABZI) is reported as “lower compared to cells treated with diABZI c3 alone”; at STING (5 µM for 15 min prior to 8 µg/mL cGAMP) it was “lower compared to cells treated with cGAMP alone”. Besides, the “phosphorylation of STING, IRF1 or TBK1 (agonism)” value at STING (compound as single agent, no activation) is “no phosphorylation of STING, IRF1 or TBK1 was observed”. As for `CCn1nc(C)cc1C(=O)/N=c1\n(C)c2cc(C(N)=O)ccc2n1CCC(CCn1/c(=N/C(=O)c2cc(C)nn2CC)n(C)c2cc(C(N)=O)ccc21)OCC(=O)NCCOCCOCC(=O)N[C@H](C(=O)N1C[C@H](O)C[C@H]1C(=O)NCc1ccc(-c2scnc2C)cc1)C(C)(C)C` (stereo partly drawn) [Example 15], in test [1], the IC50 is 1.7 nM.

By IC50 is commonly meant the concentration needed to halve the response being measured.
